Data on one molecule can be found in patent US7893023B2, “Prodrugs activated by plasmin and their use in cancer chemotherapy” (priority 2000, dated 2011).

The test system of one series is OF-1 mice. As to conditions: obtained under the same conditions, known value; cited from earlier work.
Series [1] relates to LS174T colon tumor xenografts. The series is described as follows: Chemotherapeutic activity in the LS174T human colon tumor xenograft model. It counts as in vivo, mice. The text has this:
Animals were kept under pathogen-free conditions with food and water supplied ad libitum, and kept for about one week before implantation of the tumors. Fragments (˜2 mm) of tumors grown in nude mice were implanted subcutaneously in both flanks of the mice. Tumors were generally allowed to grow to attain a diameter of 5-6 mm each (approximately two weeks).
The mice weighed 20.0-25.0 g at the beginning of the study. They were selected and assigned to groups in order to have equally distributed tumor volumes in the different groups. In each group, mice were labeled individually. Treatments were assigned randomly to those groups.
All dosing solutions were prepared the day of injection by dissolution in water ( 1/10 of the expected final volume) and further dilution with 0.9% (w/v) NaCl. The concentration of these solutions was checked (A475 nm determination) after sterilization by filtration (0.22 μm) and adjusted to the final required value using sterile 0.9% (w/v) NaCl).
Treatments were administered by the i.p. route. The mice received a constant volume (10 μl/g) of either saline (control group) or drug. Mortality and clinical signs were recorded up to 4 hours post-treatment on dosing days, and daily thereafter. Their behavior was equally noted. Individual body weights were generally recorded daily until day 14 and at least twice a week thereafter.
Tumor growth was monitored by two-dimensional measurements using calipers and a precision of 0.5 mm. Tumor volumes were calculated according to the following formula: Vt=[length×(width)^2]/2
Median relative tumor volumes (RTV) were calculated as tumor volumes determined at individual days divided by tumor volumes on day 0. For treated groups, growth inhibition was estimated as the percentage ratio of median RTV of treated (T) mice versus controls (C) on each day of tumor treatment. T/C(%)=[Median RTV(treated group)/Median RTV(control group)]×100
The minimal T/C value (%) for each treatment was used as a parameter for maximum efficacy. Duration of growth inhibition was assessed by considering growth delays (T-C) for one (200%) and two (400%) doublings of the median RTV).
To determine the statistical significance of any difference in median RTV between two groups, the Mann-Whitney test was used. The test was conducted at a p level of 0.05 (two tailed) using the GraphPad Prism 3.00 software.
Female Swiss nude mice were 5 weeks old upon delivery (See General Methods, Section O). They were kept under pathogen-free conditions with food and water supplied ad libitum, and kept for about one week before implantation of the tumors. Fragments (˜2 mm) of LS174T tumors grown in nude mice were implanted subcutaneously in both flanks of the mice used in the study. Tumors were left to grow for 17 days. At that time, the mice weighed about 20.5-26.5 g.
Mice were then selected and assigned to groups in order to have equally distributed tumor volumes in different groups (5-6 mice, 9-10 tumors/group). The dose levels of Compound II, DOX used in the study, were selected on the basis of a lethality study previously conducted on OF-1 normal mice. The dose of DOX was based on previous chemotherapy experiments performed in nude mice with the same dosing schedule.
Treatments were administered by the i.p. route on days 0, 1, 2, 3 and 4, the mice receiving a constant volume (10 μl/g) of either saline or the different dosing solutions. DOX was used at 3.8 μmol/kg, Compound II, DOX was used at 25.9 μmol/kg and 34.5 μmol/kg. Clinical signs (recorded 0.5, 1, 2 and 4 hours after dosing and daily between dosing days) and body weights (recorded on each day of tumor measurement) were used to assess treatment toxicity, tumor growth was monitored on days 7, 12, 15, 19, 22, 26, 29, 33 and 36 by two-dimensional measurements using calipers and a precision of 0.5 mm.

The mark [2] stands for this setting: DOX 3.8 μmol/kg, Compound II, DOX lower dosage 25.9 μmol/kg, i.p. days 0-4.

Read-outs that look alike come from different tables or passages of the source.

Method for B16-B16 murine melanoma: Male C57-B16 black mice were 5 weeks old upon delivery. The body weight of the animals was approximately 20 g at the beginning of the test (See General Methods, Section O).
The animals were divided in eight groups (5 mice per group). Confluent murine melanoma B16-B16 cells (See General Methods, Section E.) were washed twice with PBS and EDTA (See General Methods, Section F.) twice and detached with trypsin (2 min incubation at 37° C.), that was thereafter neutralized by DMEM-F12 (containing 10% of calf serum). The cells were centrifuged for 5 min at 300 g. The pellet was resuspended twice in the DMEM-F12 without serum and centrifuged 5 min at 300 g.
The number of cells per ml of DMEM-F12 was then estimated (Brucker chamber) and the dilution of 2.5×10^5 cells/ml prepared. Each animal received 200 μl of this suspension (5.0×10^4 cells) in its tail vein. The day of injection was considered day 0 of the study. […] Animals were weighed on days 0, 1, 3, 6, 8 and 14. Their behavior and eventual clinical signs were also noted. All animals were sacrificed on day 14 and autopsied.
The lung lobes were fixed in a Bouin's solution (picric acid: formaldehyde, 40%: acetic acid, 15:5:1, v/v). Every lobe immersed in the fixing solution in a Petri flask was uniformly lighted against an opaque black background. Pictures of the front and back side of every lobe were taken with the help of a light microscope, scanned and digitized. The relative surface occupied by B116-B16 colonies was then estimated with the Scion Image Program.
The individual mean values were analyzed with the Scheffe's F-test to evaluate the statistical significance of differences observed between the groups.

Take `COc1cccc2c1C(=O)c1c(O)c3c(c(O)c1C2=O)C[C@@](O)(C(=O)CO)C[C@@H]3O[C@H]1C[C@H](N)[C@H](O)[C@H](C)O1` [DOX, Doxorubicin]: the “lung surface occupied by B16-B16 metastases” value in the series on B16-B16 murine melanoma (5.2 μmol/kg i.p. days 1 and 3, day 14) was 44.0±6.3%. Besides, the “mean body weight, % of initial” value with B16-B16 murine melanoma (5.2 μmol/kg, day 14) is reported as 104.7%. For the same molecule, the “lung surface occupied by B16-B16 metastases” value with B16-B16 murine melanoma (8.6 μmol/kg i.p. days 1 and 3, day 14) stood at 23.4±5.7%. The “mean body weight, % of initial” value in the series on B16-B16 murine melanoma (8.6 μmol/kg, end of study) is reported as 110%. Moreover, the “activity on lung metastases” value with B16-B16 murine melanoma (5.2 and 8.6 μmol/kg) is given as “did not show any significant activity”. Further, the 50% lethal dose (LD50) in the series on OF-1 mice was 4.1 µmol/kg. In series [1] (DOX 3.8 μmol/kg i.p. days 0-4), the antitumor activity result is reported as “total lack of activity” and the tumor regression entry was “No tumor regression”. For the same molecule, in series [1] (setting [2]), the treatment-related mortality entry was “No treatment-related mortality” and the weight loss entry is on record as “no significant weight loss”.

For orientation: LD50 means the dose expected to kill half of the subjects tested.
